This is an account of results in patent publication US20260285816A1, “Piperazinyl-Modified Quinazolinyl-Aryl Urea Derivative, And Preparation Method And Use Thereof” (Guangxi Normal University, priority 2025, published 2026).

“Also recorded” adds a separate entry of the source. Where two headings read alike, the source gives them in different places. A value given as a limit tells only on which side of the number the result lay.

One data set relates to J82 cells. As to the kind of experiment: CCK-8 anti-proliferative assay, J82. It counts as cell-based, human. To be noted: Homo sapiens, J82. The method, boiled down:
(§1)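 Cells seeded at 5,000/well, grown at 37° C, 5% CO2 to 70% confluence, then treated in triplicate with 1-30 μM compound (nine concentrations) for designated times.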
On the technique in general: Tetrazolium dyes change colour on reduction, which living cells bring about.

A further data set relates to UM-UC-3 cells. Kind of data set: CCK-8 anti-proliferative assay, UM-UC-3. It counts as cell-based, human. To be noted: Homo sapiens, UMUC3, co-incubated 48 h, read-out: Anti-proliferative activity (IC50 ± standard deviation) UM-UC-3. The gist of the method: as §1
The next data set deals with T24 cells. Kind of data set: CCK-8 anti-proliferative assay, T24. In kind it is cell-based, human. To be noted: Homo sapiens, T-24, co-incubated 48 h, read-out: Anti-proliferative activity (IC50 ± standard deviation) T24. The gist of the method: (§2)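 Cells seeded at 5,000/well were grown at 37° C. under 5% CO2 to 70% confluency, then exposed in triplicate to 1–30 μM compound (1, 2, 4, 6, 8, 12, 16, 24, 30 μM) for designated durations. CCK-8 was added for 1–4 h, OD read at 450 nm, and IC50 derived from inhibition versus control.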

A further data set relates to 5637 cells. Kind of data set: CCK-8 anti-proliferative assay, 5637. It counts as cell-based, human. To be noted: Homo sapiens. The method, boiled down: as §1
Another data set concerns 143B cells. Kind of data set: CCK-8 anti-proliferative assay, 143B. It counts as cell-based, human. To be noted: Homo sapiens, 143B. The gist of the method:
as §2

Another data set concerns MG-63 cells. As to the kind of experiment: CCK-8 anti-proliferative assay, MG-63. In kind it is cell-based, human. To be noted: Homo sapiens, MG-63. The gist of the method:
as §2

The test system of another data set is BxPC-3 cells. As to the kind of experiment: CCK-8 anti-proliferative assay, BxPC-3. In kind it is cell-based, human. To be noted: for IC50: Homo sapiens, BXPC-3, co-incubated 48 h, read-out: Anti-proliferative activity (IC50 ± standard deviation) BxPC-3. The method, boiled down:
as §2

The test system of the next data set is PANC-1 cells. Kind of data set: CCK-8 anti-proliferative assay, PANC-1. To be noted: for IC50: Homo sapiens, PANC-1, co-incubated 48 h, read-out: Anti-proliferative activity (IC50 ± standard deviation) PANC-1. In kind it is cell-based, human. The gist of the method:
as §2

A further data set relates to HeLa cells. Kind of data set: CCK-8 anti-proliferative assay, HeLa. In kind it is cell-based, human. To be noted: for IC50: Homo sapiens, HeLa, co-incubated 48 h, read-out: Anti-proliferative activity (IC50 ± standard deviation) HeLa. The gist of the method:
as §1

The next data set concerns MCF-7 cells. As to the kind of experiment: CCK-8 anti-proliferative assay, MCF-7. In kind it is cell-based, human. To be noted: for IC50: Homo sapiens, MCF7, co-incubated 48 h, read-out: Anti-proliferative activity (IC50 ± standard deviation) MCF-7. The method, boiled down: as §1
The subject of the next data set is A549 cells. Kind of data set: CCK-8 anti-proliferative assay, A549. In kind it is cell-based, human. To be noted: for IC50: Homo sapiens, A549, co-incubated 48 h, read-out: Anti-proliferative activity (IC50 ± standard deviation) A549. The method, boiled down:
as §1

A further data set relates to Hep G2 cells. As to the kind of experiment: CCK-8 anti-proliferative assay, Hep G2. It counts as cell-based, human. To be noted: Homo sapiens, HepG2, co-incubated 48 h, read-out: Anti-proliferative activity (IC50 ± standard deviation) Hep G2. The method, boiled down: as §2
For another data set, the system named is SK-OV-3 cells. Kind of data set: CCK-8 anti-proliferative assay, SK-OV-3. It counts as cell-based, human. To be noted: Homo sapiens, SK-OV-3, co-incubated 48 h, read-out: Anti-proliferative activity (IC50 ± standard deviation) SK-OV-3. The gist of the method: as §1
Data set [1] deals with immortalized ureteral epithelial cells (SV-HUC-1). Kind of data set: CCK-8 anti-proliferative assay, normal cells SV-HUC-1. It counts as cell-based, human. To be noted: Homo sapiens, SV-HUC1, normal cells, co-incubated 48 h, read-out: Anti-proliferative activity (IC50 ± standard deviation) SV-HUC-1. The gist of the method:
as §1

Data set [2] relates to embryonic lung fibroblasts (WI-38). Kind of data set: CCK-8 anti-proliferative assay, normal cells WI-38. To be noted: Homo sapiens, read-out: Anti-proliferative activity (IC50 ± standard deviation) WI-38. It counts as cell-based, human. The gist of the method: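 Compound was added at final concentrations of 1 to 30 μM, in triplicate, to cells at 70% confluence (5,000 per well seeded). After co-incubation, CCK-8 was added for 1–4 h depending on the cell line. Inhibition from OD450 relative to untreated cells gave IC50.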

The format of data set [3] is physicochemical. How it is done: 0.9% normal saline was added thereto to obtain a solution, which was sterilized under UV light for 30 min. Administration volume was 10 mL/kg per mouse. […]
A resulting mixture was sterilized under UV light for 30 min. Administration volume was 10 mL/kg per mouse.

The mark [4] stands for this setting: read-out: IC50 values, osteosarcoma cells 143B.
[5] abbreviates: read-out: IC50 values, osteosarcoma cells MG-63.

Broadly, the IC50 is the concentration at which inhibition is half-maximal. Turning to `COc1cc2ncnc(NCc3cccc(NC(=O)Nc4ccc(C(C)(C)C)cc4)c3)c2cc1OCCCCCCN1CCN(CCN2CCOCC2)CC1` [Compound 8-1j, N-(3-(((7-methoxy-6-((6-(4-(2-morpholinoethyl)piperazin-1-yl)hexyl)oxy)quinazolin-4-yl)amino)methyl)phenyl)-N′-(4-tert-butylphenyl)urea], the IC50 in the data set on J82 cells (Table 6, co-incubated 48 h, read-out: Anti-proliferative activity (IC50 ± standard deviation) J82) came to 2.98 ± 0.27 µM; in the data set on J82 cells (read-out: IC50 values against J82 cells) it was 2.98 ± 0.27 µM; in the data set with UM-UC-3 cells (Table 6), 3.53 ± 0.39 µM; with T24 cells (Table 6), 4.57 ± 0.42 µM; with 5637 cells (Table 6, co-incubated 48 h, read-out: Anti-proliferative activity (IC50 ± standard deviation) 5637) it was 3.29 ± 0.27 µM; in the data set with 5637 cells (read-out: IC50 values against 5637 cells), 3.29 ± 0.27 µM. Besides, the IC50 with 143B cells (Table 7, co-incubated 48 h, read-out: Anti-proliferative activity (IC50 ± standard deviation) 143B) was 3.43 ± 0.25 µM; with 143B cells (setting [4]), less than 5 µM; with MG-63 cells (Table 7, co-incubated 48 h, read-out: Anti-proliferative activity (IC50 ± standard deviation) MG-63), 4.17 ± 0.38 µM; in the data set with MG-63 cells (setting [5]) it was less than 5 µM; with BxPC-3 cells (Table 7) it was 6.53 ± 0.48 µM; in the data set on PANC-1 cells (Table 7), 7.72 ± 0.66 µM. For the same molecule, the IC50 in the data set on HeLa cells (Table 8) is 4.33 ± 0.45 µM; in the data set with MCF-7 cells (Table 8), 3.25 ± 0.35 µM; in the data set on A549 cells (Table 8), 4.39 ± 0.34 µM; in the data set with Hep G2 cells (Table 8), 3.83 ± 0.36 µM; in the data set on SK-OV-3 cells (Table 9) it was 5.04 ± 0.32 µM; in [1] (Table 9) it was 8.03 ± 0.41 µM. The IC50 in data set [2] (WI-38, Table 9, co-incubated 48 h) worked out at 10.3 ± 0.36 µM. Moreover, the “Sensitivity of BxPC-3 / anti-proliferative activity against BxPC-3, in words” value in the data set on BxPC-3 cells is given as “sensitive; also recorded: less sensitive”. Moreover, the “Sensitivity of MCF-7, in words” value in the data set with MCF-7 cells is “sensitive”. The “Solubility in co-solvents (PEG400+normal saline, PEG400+PBS, PEG400+5% dextrose injection)” value in [3] is “superior solubility”. Moreover, the “Solubility in the PEG400-0.9% normal saline mixture” value in data set [3] (PEG400:0.9% normal saline 3:1) was “desirable solubility”.
Regarding `CCc1cccc(CC)c1NC(=O)Nc1cccc(CNc2ncnc3cc(OC)c(OCCCCCCN4CCC(CN5CCN(c6ccccn6)CC5)CC4)cc23)c1` [Compound 8-2h, N-(3-(((7-methoxy-6-((6-(4-((4-(pyridin-2-yl)piperazin-1-yl)methyl)piperidin-1-yl)hexyl)oxy)quinazolin-4-yl)amino)methyl)phenyl)-N′-(2,6-diethylphenyl)urea], the IC50 with J82 cells (Table 10, co-incubated 48 h, read-out: Anti-proliferative activity (IC50 ± standard deviation) J82) was 4.42 ± 0.29 µM; in the data set on UM-UC-3 cells (Table 10), 5.09 ± 0.35 µM; in the data set with T24 cells (Table 10), 4.21 ± 0.36 µM; with 5637 cells (Table 10, co-incubated 48 h, read-out: Anti-proliferative activity (IC50 ± standard deviation) 5637) it was 4.18 ± 0.22 µM; with 143B cells (Table 11, co-incubated 48 h, read-out: Anti-proliferative activity (IC50 ± standard deviation) 143B), 4.91 ± 0.36 µM; in the data set with 143B cells (setting [4]) it was less than 5 µM. In addition, the IC50 in the data set with MG-63 cells (Table 11, co-incubated 48 h, read-out: Anti-proliferative activity (IC50 ± standard deviation) MG-63) was 3.97 ± 0.26 µM; in the data set on MG-63 cells (setting [5]), less than 5 µM; with BxPC-3 cells (Table 11) it was 3.66 ± 0.24 µM; in the data set with PANC-1 cells (Table 11) it was 4.88 ± 0.29 µM; in the data set on HeLa cells (Table 12) it was 3.29 ± 0.18 µM; with MCF-7 cells (Table 12), 5.38 ± 0.35 µM. Besides, the IC50 with A549 cells (Table 13) turned out to be 3.41 ± 0.26 µM; with Hep G2 cells (Table 12), 4.66 ± 0.38 µM; in the data set with SK-OV-3 cells (Table 12), 6.12 ± 0.55 µM; in [1] (Table 13) it was 9.53 ± 0.83 µM; in data set [2] (WI-38, Table 13, co-incubated 48 h) it was 9.58 ± 0.43 µM. Also, the “Sensitivity of BxPC-3 / anti-proliferative activity against BxPC-3, in words” value with BxPC-3 cells is recorded as “significantly stronger anti-proliferative activity against BxPC-3 than positive control Sora; also recorded: heightened sensitivity; also recorded: very sensitive; also recorded: highly sensitive”. Further, in the data set on PANC-1 cells, the “Sensitivity of PANC-1, in words” value is on record as “sensitive; also recorded: heightened sensitivity”. Further, the “Sensitivity of HeLa, in words” value with HeLa cells is reported as “sensitive”. In addition, the “Activity against A549 versus the 8-1 to 8-23 series, in words” value in the data set with A549 cells is “significantly enhanced activity against A549”. Further, in data set [3], the “Solubility in co-solvents (PEG400+normal saline, PEG400+PBS, PEG400+5% dextrose injection)” value was “superior solubility”.
